In patent US5840752A, “Reduction of hair growth” (priority 1996, dated 1998):

Legend:
[1] = test system: hair growth of hamster flank organs; assay: Golden Syrian hamster assay (flank organ hair mass); type: in vivo; details: topical, thirteen applications; for Hair Mass (mg) ± SEM, Treated: 10 μl once a day; for % Reduction (of hair growth): vs vehicle treated side
Description: Male intact Golden Syrian hamsters are considered acceptable models for human beard hair growth in that they display oval shaped flank organs, one on each side, each about 8 mm. in major diameter, which grow thick black and coarse hair similar to human beard hair. These organs produce hair in response to androgens in the hamster. To evaluate the effectiveness of a composition including an inhibitor of a cholesterol synthetic pathway enzyme, the flank organs of each of a group of hamsters are depilated by applying a thioglycolate based chemical depilatory (Surgex) and/or shaved. To one organ of each animal 10 μl. of vehicle alone once a day is applied, while to the other organ of each animal an equal amount of vehicle containing an inhibitor of a cholesterol synthetic pathway enzyme is applied. After thirteen applications (one application per day for five days a week), the flank organs are shaved and the amount of recovered hair (hair mass) from each is weighed. Percent-reduction of hair growth is calculated by subtracting the hair mass (mg) value of the test compound treated side from the hair mass value of the vehicle treated side; the delta value obtained is then divided by the hair mass value of the vehicle treated side, and the resultant number is multiplied by 100.
The above-described assay will be referred to herein as the "Golden Syrian hamster" assay.

[2] = test system: HMG CoA reductase; assay: HMGCoA reductase assay in extracts of hair follicles from hamster flank organ; type: biochemical; details: tested at 14 μM, 1 hour incubation
[3] = dose 5%, Vehicle C (85% dimethyl sulfoxide, 10% benzyl alcohol, 5% NMP)
[4] = dose 5%, Vehicle B (100% dimethyl sulfoxide)
[5] = dose 10%, Vehicle A (40% acetone, 40% dipropylene glycol, 20% dimethyl sulfoxide)
[6] = dose 10%, Vehicle C (85% dimethyl sulfoxide, 10% benzyl alcohol, 5% NMP)

C[C@H](CCCC(C)(C)O)[C@H]1CC[C@H]2[C@@H]3CC=C4C[C@@H](O)CC[C@]4(C)[C@H]3CC[C@]12C [25-Hydroxycholesterol, 25-hydroxycholesterol]
Hair Mass (mg) ± SEM, Treated [1, 3]: 1.04 ± 0.10 mg | % Reduction (of hair growth) [1, 3]: 17 ± 9%

CC[C@H](C)C(=O)O[C@H]1CCC=C2C=C[C@H](C)[C@H](CC[C@@H]3C[C@@H](O)CC(=O)O3)[C@H]21 [Mevastatin, mevastatin]
Hair Mass (mg) ± SEM, Treated [1, 4]: 1.09 ± 0.07 mg | % Reduction (of hair growth) [1, 4]: 19 ± 7%

CC[C@H](C)C(=O)O[C@H]1C[C@@H](C)C=C2C=C[C@H](C)[C@H](CC[C@@H]3C[C@@H](O)CC(=O)O3)[C@H]21 [Lovastatin, 1S-[1S-[1α(R*),3α,7β,8β(2S*,4S*),8αβ]]-1,2,3,7,8,8a-hexahydro-3,7-dimethyl-8-[2-(tetrahydro-4-hydroxy-6-oxo-2H-pyran-2-yl)ethyl]-1-naphthalenyl 2-methylbutanoate]
Hair Mass (mg) ± SEM, Treated [1, 5]: 0.81 ± 0.13 mg | % Reduction (of hair growth) [1, 5]: 63±4%

CC(C)CCC[C@@H](C)[C@H]1CC[C@H]2[C@@H]3C(=O)C=C4C[C@@H](O)CC[C@]4(C)[C@H]3CC[C@]12C [7-Ketocholesterol, 5-cholesten-3β-Ol-7-one]
Hair Mass (mg) ± SEM, Treated [1, 6]: 1.01 ± 0.1 mg | % Reduction (of hair growth) [1, 6]: 54 ± 7%

CCC(C)(C)C(=O)O[C@H]1C[C@@H](C)C=C2C=C[C@H](C)[C@H](CC[C@@H]3C[C@@H](O)CC(=O)O3)[C@H]21 (relative stereo) [Simivistatin, 1S-[1α,3α,7β,8β(2S*,4S*),8aβ]]-1,2,3,7,8,8a-hexahydro-3,7-dimethyl-8-[2-tetrahydro-4-hydroxy-6-oxo-2H-pyran-2-yl)ethyl]-1-napthalenyl-2,2-dimethyl-butanoic acid]
Hair Mass (mg) ± SEM, Treated [1, 5]: 0.60 ± 0.11 mg | % Reduction (of hair growth) [1, 5]: 61 ± 7% | inhibition of HMG CoA reductase activity [2]: 100%
